The target of assay [1] is T1, CB1 (rCB1) (Rattus norvegicus, UniProt P20272). The assay is described as follows: Radioligand competition binding, [3H]-CP-55,940, rat brain membranes. The settings on record: for pKi [95% CI]: rCB1; for Ki: read-out: Ki [95% CI], rCB1, [3H]-CP-55,940.
Assay [2] has as its target T1, CB1 (rCB1). The assay is described as follows: Single-point radioligand displacement screen. The settings on record: for % 1H-CP-55,940 displacement (mean) from single point screen: 10 µM, 1 µM or 300 nM by cell colour (not visible); for rep1_displacement / rep2_displacement / rep3_displacement: Figure 1c source data; for rep1_displacement: replicate 1; for rep2_displacement: replicate 2; for rep3_displacement: replicate 3. Type of assay: binding. (In general: Loss of bound radioactivity is the signal in a displacement assay; it reports binding, not function.)

Experimental findings from article PMC11882969 (Nature Communications, 2025) are described below.

As usually defined, the Ki is a dissociation constant, usually derived from enzyme kinetics or from competition with a known ligand.

T1 sequence (P20272 whole entry): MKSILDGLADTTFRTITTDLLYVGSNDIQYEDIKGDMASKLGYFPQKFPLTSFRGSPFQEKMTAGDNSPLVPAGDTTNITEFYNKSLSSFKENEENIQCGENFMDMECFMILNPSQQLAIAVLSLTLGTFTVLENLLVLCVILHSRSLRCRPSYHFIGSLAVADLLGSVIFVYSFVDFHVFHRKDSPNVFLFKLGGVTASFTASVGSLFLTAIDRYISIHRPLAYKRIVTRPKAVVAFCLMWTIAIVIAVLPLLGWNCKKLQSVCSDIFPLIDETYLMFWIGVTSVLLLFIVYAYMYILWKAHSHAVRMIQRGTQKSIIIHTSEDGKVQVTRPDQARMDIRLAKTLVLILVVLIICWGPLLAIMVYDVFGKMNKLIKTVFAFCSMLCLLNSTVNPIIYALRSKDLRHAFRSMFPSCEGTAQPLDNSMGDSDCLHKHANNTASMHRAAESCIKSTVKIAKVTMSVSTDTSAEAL

For `COC(=O)[C@H](c1cccs1)N(C)C(=O)c1cc(C)n(-c2cccc(C(F)(F)F)c2)n1` [‘1066], at CB1 (rCB1) [1], the “pKi [95% CI]” value is 5.8 [5.4 – 6.1] and the Ki was determined as 1720 nM. As to `COC(=O)C(c1ccco1)N(C)C(=O)c1cc(C)n(-c2cccc(C(F)(F)F)c2)n1` (centres unmarked) [‘6425], on CB1 (rCB1) [1], the “pKi [95% CI]” value was 6.0 [5.8 – 6.2] and the Ki was determined as 934 nM.

Consider `Cc1cc(C(=O)NC(C)(c2ccccc2)c2ccco2)nn1-c1cccc(C(F)(F)F)c1` (centres unmarked) [‘5806], for which the “pKi [95% CI]” value on CB1 (rCB1) [1] was 8.1 [7.7 – 8.5]. At CB1 (rCB1) [1] (vs parent hit or analog without the change), the “fold improvement in CB1R affinity” value was roughly 15 fold.

For the compound `CCCCCCC(C)(C)c1cc(O)c2c(c1)OC(C)(C)C1CCC(=O)CC21` (centres unmarked) [Nabilone, reference compound], on CB1 (rCB1) [1], the “pKi [95% CI]” value is 8.6 [8.4 – 8.9] and the Ki came out at 2.3 nM. For `COC(=O)C(NC(=O)c1cc(-c2ccccc2)n(-c2cccc(C(F)(F)F)c2)n1)c1cccs1` (centres unmarked) [‘8079] the same measures were 7.7 [7.6 – 7.9] and 18.5 nM. As to `COC(=O)[C@@H](c1cccs1)N(C)C(=O)c1cc(C)n(-c2cccc(C(F)(F)F)c2)n1` [‘6000], on CB1 (rCB1) [1], the “pKi [95% CI]” value is 5.8 [5.7 – 6.0] and the Ki stood at 1460 nM.

In the case of `O=C(Nc1cccc2ccsc12)c1ccn(-c2cccc(F)c2)n1` [1486_22], on CB1 (rCB1) [2], the “% 1H-CP-55,940 displacement (mean) from single point screen” value (“% 1H-CP-55,940 displacement (mean)” for short) was -3.59%. On to `CC(=O)C(C)(NC(=O)c1cc(C)n(-c2cccc(C(F)(F)F)c2)n1)c1cccs1` (centres unmarked) [‘4156], for which, on CB1 (rCB1) [1], the “pKi [95% CI]” value is 7.9 [7.5 – 8.2] and the Ki worked out at 13.5 nM. On to `Cc1nn(Cc2ccccc2Cl)c(C)c1C(=O)OCC1CSc2ccccc2O1` (centres unmarked) [7800_28], for which the “% 1H-CP-55,940 displacement (mean)” value on CB1 (rCB1) [2] is listed as 55.46%. `O=C1CN(C(=O)c2ccc(Cl)c3cccnc23)CN1Cc1ccccc1` [compound 14861]: on CB1 (rCB1) [2], the “% 1H-CP-55,940 displacement (mean)” value is on record as 15.10%, the rep1_displacement is given as 15, the rep2_displacement is 15.3 and the rep3_displacement stood at 15. Consider `Cc1onc(-c2ccccc2)c1C(=O)OCc1cn2cc(Cl)ccc2n1` [compound 74872], for which, at CB1 (rCB1) [2], the “% 1H-CP-55,940 displacement (mean)” value was found to be 49.60%, the rep1_displacement came out at 51.6, the rep2_displacement is 49.2 and the rep3_displacement is 48. For the compound `Cc1nc(CC2CC2)oc1-c1nc(Cc2cc(Br)c3c(c2)OCO3)no1` [compound 53217], the “% 1H-CP-55,940 displacement (mean)” value on CB1 (rCB1) [2] is 14.33%. Consider `COC(=O)[C@H]1Cc2ccccc2CN1C(=O)c1cc(C)n(-c2cccc(F)c2)n1` [compound 76400], for which the “% 1H-CP-55,940 displacement (mean)” value on CB1 (rCB1) [2] is -1.48%. As for `Cc1nc(CC2CC2)oc1-c1nc(Cc2ccc3c(c2)OCO3)no1` [compound 97058], the “% 1H-CP-55,940 displacement (mean)” value at CB1 (rCB1) [2] is recorded as 17.45%. Still for that read-out and setting: the result for `O=C(NCC1CSc2ccccc2O1)c1cn(Cc2ccccc2)nn1` (centres unmarked) [compound 78184] reads 28.43%. Turning to `O=C(OCc1ccc(Cl)cc1-n1cncn1)c1ccnc(OC2CCC2)c1` [compound 91451], on CB1 (rCB1) [2], the “% 1H-CP-55,940 displacement (mean)” value was found to be 17.98%, the rep1_displacement is listed as 15.6 and the rep2_displacement was 20.4. Consider `CN(CCOc1ccc(Br)cc1)c1ncnc(-c2ccccc2)n1` [compound 55901], for which, at CB1 (rCB1) [2], the “% 1H-CP-55,940 displacement (mean)” value is reported as 23.61%, the rep1_displacement was found to be 24.5, the rep2_displacement is 26.2 and the rep3_displacement is on record as 20.1. Take `CCCCc1nc(C)c(Cc2nc(Cc3ccc4c(c3)OCO4)no2)s1` [7019_27]: on CB1 (rCB1) [2], the “% 1H-CP-55,940 displacement (mean)” value was found to be 45.01%. As to `COC(=O)[C@@H](NC(=O)c1cc(C)n(-c2cccc(Cl)c2)n1)c1ccc(OC)cc1` [compound 69543], the “% 1H-CP-55,940 displacement (mean)” value at CB1 (rCB1) [2] is 10.83%. In the case of `O=C(OCC1CSc2ccccc2O1)c1cc(Oc2ccccc2)ccn1` (centres unmarked) [compound 50267], the “% 1H-CP-55,940 displacement (mean)” value on CB1 (rCB1) [2] was 15.53%. Turning to `CCOC(=O)c1nc(-c2nc(Cc3cc4c(cc3Br)OCO4)no2)cs1` [7019_300], the “% 1H-CP-55,940 displacement (mean)” value on CB1 (rCB1) [2] amounted to 3.83%.

Take `N#CCCn1ncc(C(=O)OCC2CSc3ccccc3O2)c1-c1ccccc1` (centres unmarked) [compound 0372]: the “% 1H-CP-55,940 displacement (mean)” value on CB1 (rCB1) [2] is recorded as 41.18%. As to `Cc1cc(C(=O)N2CC3(CCC3)[C@@H]3COC[C@@H]32)nn1-c1cccc(C(F)(F)F)c1` [10_14], the “% 1H-CP-55,940 displacement (mean)” value at CB1 (rCB1) [2] is recorded as 91.30%.
